The conditions of this series: 101.33 kPa, Liquid; for viscosity: Capillary tube (Ostwald / Ubbelohde) method; for speed of sound: Sing-around technique in a fixed-path interferometer; for mass density: Vibrating tube method.

Numbers after ± are expanded uncertainties.

As a reminder, the viscosity is the internal friction of a fluid under shear. The term speed of sound denotes the propagation velocity of pressure waves in the medium. A word on the mass density: it is mass per unit of volume.

Take `OCC(F)(F)F` [2,2,2-trifluoroethanol]: the viscosity is 2.693 ± 0.023 mPa·s (283.15 K), 1.755 ± 0.017 mPa·s (298.15 K) and 1.208 ± 0.012 mPa·s (313.15 K). For the same molecule, the speed of sound is, setting by setting: (283.15 K) 872.3 ± 1.2 m/s; (298.15 K) 826.7 ± 1.1 m/s; (313.15 K) 791.7 ± 1.1 m/s. In addition, the mass density is, setting by setting: (283.15 K) 1407.89 ± 0.21 kg/m3; (298.15 K) 1382.44 ± 0.2 kg/m3; (313.15 K) 1356.91 ± 0.19 kg/m3.
Turning to `C1CCOCC1` [tetrahydropyran], under “283.15 K”, the viscosity was found to be 1.005 ± 0.0098 mPa·s, the speed of sound was 1335.8 ± 1.6 m/s and the mass density stood at 894.08 ± 0.46 kg/m3. Moreover, under “298.15 K”, the viscosity is listed as 0.8005 ± 0.0081 mPa·s, the speed of sound was determined as 1255 ± 1.6 m/s and the mass density is reported as 879.18 ± 0.45 kg/m3. Also, under “313.15 K”, the viscosity was determined as 0.6494 ± 0.0067 mPa·s, the speed of sound stood at 1199.8 ± 1.6 m/s and the mass density was 864.37 ± 0.45 kg/m3.

These data come from the NIST ThermoML archive (doi:10.1021/je025655p).
